According to patent US20260096978A1, “A METHOD FOR PREVENTING, […]/OR TREATING PTGS2-INDUCED SKIN DISORDERS AND RELATED DYSFUNCTIONS” (Symrise AG, priority 2022, published 2026):

How the values were obtained:
PTGS2 [1] = assay: PTGS2 gene expression (real-time RT-PCR) in ex vivo human skin biopsies exposed to solar simulated radiation; assay type: cell-based; conditions: for PTGS2 gene expression, fold-change versus non-irradiated vehicle: SSR 250 J/cm^2 daily, day 2; for PTGS2 gene expression, % of irradiated vehicle: irradiated vehicle = 100; for PTGS2 gene expression, Δ versus irradiated vehicle: irradiated vehicle Δ = 0; for Effect on SSR-induced PTGS2 gene expression, in words: ex vivo human skin, SSR 250 J/cm^2
Description: (§1) In order to evaluate the efficacy of L-Carnosine on protecting skin from Solar Simulated Radiation (SSR), gene expression and protein level of PTGS2 were analysed. -Ex vivo human skin biopsies were topically treated with L-Carnosine at different concentrations (0.2% and 2.2%), and daily exposed to 250 J/cm^2 of SSR. Gene expression and protein modulation were assessed respectively at day 2 and day3. The radiation dose was selected following the literature, and represent the approximative amount of solar light acquirable under natural conditions by sunbathing.
(§2) Human skin samples were obtained from plastic surgery of healthy patients (aged between 25 and 60), and not intensive sun exposed. The informed consent was obtained from patients and retained by clinic. For the studies, twelve 8 mm diameter punch biopsies were used for each treatment. The skin samples were cultured in modified Williams' E medium at air-liquid interface and, maintained in incubator at the following conditions: 37° C., 5% CO2 and 95% humidity.
(§3) For these studies L-Carnosine was dissolved in vehicle (DMSO/PBS 1:25) at the following concentration 0.2% and 2.2%. Treatments were applied topically and renewed daily as follows: skin biopsies were cleaned with sterile cotton buds and 4 μl of treatment were applied on the biopsy's epidermis. All treated and the control samples were covered with 6 mm diameter delivery membranes.
(§4) Skin irradiation was performed daily, with Suntest XLS+(Ametek Inc., USA) equipped with the provided IR filter and a DAY LIGHT filter, to obtain an emission spectrum between 300 and 800 nm. Every day the skin samples were irradiated with a SSR dose of 250 J/cm^2. Control samples were sham-irradiated under the same conditions.
Human skin biopsies were collected in cryo-vial containing a commercial RNA stabilization solution (RNAlater, Merck KGaA, Germany) and stored at −80° C. Total RNA was extracted using a commercial kit (Rneasy mini-kit, Qiagen GmbH, Germany) according to the manufacturer's instructions. The expression level of selected genes was determined using Real-time RT-PCR method with custom designed gene array (TaqMan® Array 96-Well Fast Plates, Thermo Fisher Scientific Inc., USA).
Gene expression changes were determined in three donors.

PTGS2 [2] = assay: PTGS2 protein level (IHC staining) in ex vivo human skin biopsies exposed to solar simulated radiation; assay type: cell-based; conditions: SSR 250 J/cm^2; for PTGS2 protein level, mean as % of non-irradiated vehicle / PTGS2 protein level, Δ versus non-irradiated vehicle / PTGS2 protein level, mean score: day 3; for PTGS2 protein level, mean as % of non-irradiated vehicle: irradiated vehicle 198%; for PTGS2 protein level, Δ versus non-irradiated vehicle: irradiated vehicle Δ 98%; for PTGS2 protein level, mean score: non-irradiated vehicle 1.0302, irradiated vehicle 2.0439
Description: as §1, §2, §3, §4
Skin samples were collected (day 3), fixed in formalin and paraffin embedded. Skin sections were immuno-stained with PTGS2 antibody (Thermo Fisher Scientific Inc., USA). The images of the skin sections were acquired, and the analysis was performed through Image-J application (NIH, USA).

NCCC(=O)N[C@@H](Cc1cnc[nH]1)C(=O)O [L-Carnosine]
PTGS2 gene expression, fold-change versus non-irradiated vehicle (PTGS2 [1]; Donor #1, L-Carnosine 0.2% topical, irradiated vehicle 5.3): 4.2 fold-change | PTGS2 gene expression, % of irradiated vehicle (PTGS2 [1]; Donor #1, L-Carnosine 0.2%): 79% | PTGS2 gene expression, Δ versus irradiated vehicle (PTGS2 [1]; Donor #1, L-Carnosine 0.2%): −21 | PTGS2 gene expression, fold-change versus non-irradiated vehicle (PTGS2 [1]; Donor #1, L-Carnosine 2.2% topical, irradiated vehicle 5.3): 4.0 fold-change | PTGS2 gene expression, % of irradiated vehicle (PTGS2 [1]; Donor #1, L-Carnosine 2.2%): 76% | PTGS2 gene expression, Δ versus irradiated vehicle (PTGS2 [1]; Donor #1, L-Carnosine 2.2%): −24 | PTGS2 gene expression, fold-change versus non-irradiated vehicle (PTGS2 [1]; Donor #2, L-Carnosine 0.2% topical, irradiated vehicle 13.9): 11.3 fold-change | PTGS2 gene expression, % of irradiated vehicle (PTGS2 [1]; Donor #2, L-Carnosine 0.2%): 81% | PTGS2 gene expression, Δ versus irradiated vehicle (PTGS2 [1]; Donor #2, L-Carnosine 0.2%): −19 | PTGS2 gene expression, fold-change versus non-irradiated vehicle (PTGS2 [1]; Donor #2, L-Carnosine 2.2% topical, irradiated vehicle 13.9): 7.7 fold-change | PTGS2 gene expression, % of irradiated vehicle (PTGS2 [1]; Donor #2, L-Carnosine 2.2%): 55% | PTGS2 gene expression, Δ versus irradiated vehicle (PTGS2 [1]; Donor #2, L-Carnosine 2.2%): −45 | PTGS2 gene expression, fold-change versus non-irradiated vehicle (PTGS2 [1]; Donor #3, L-Carnosine 0.2% topical, irradiated vehicle 2.0): 1.4 fold-change | PTGS2 gene expression, % of irradiated vehicle (PTGS2 [1]; Donor #3, L-Carnosine 0.2%): 70% | PTGS2 gene expression, Δ versus irradiated vehicle (PTGS2 [1]; Donor #3, L-Carnosine 0.2%): −30 | PTGS2 gene expression, fold-change versus non-irradiated vehicle (PTGS2 [1]; Donor #3, L-Carnosine 2.2% topical, irradiated vehicle 2.0): 1.4 fold-change | PTGS2 gene expression, % of irradiated vehicle (PTGS2 [1]; Donor #3, L-Carnosine 2.2%): 72% | PTGS2 gene expression, Δ versus irradiated vehicle (PTGS2 [1]; Donor #3, L-Carnosine 2.2%): −28 | Effect on SSR-induced PTGS2 gene expression, in words (PTGS2 [1]): efficiently reduce the SSR-induced induction of the PTGS2 gene | Effect on SSR-induced PTGS2 gene expression, in words (PTGS2 [1]; listed as L-carnosine): reduces the expression of PTGS2 | PTGS2 protein level, mean as % of non-irradiated vehicle (PTGS2 [2]; L-Carnosine 0.2%): 193% | PTGS2 protein level, Δ versus non-irradiated vehicle (PTGS2 [2]; L-Carnosine 0.2%): 93% | PTGS2 protein level, mean score (PTGS2 [2]; L-Carnosine 0.2%): 1.9913 | PTGS2 protein level, mean as % of non-irradiated vehicle (PTGS2 [2]; L-Carnosine 2.2%): 146% | PTGS2 protein level, Δ versus non-irradiated vehicle (PTGS2 [2]; L-Carnosine 2.2%): 46% | PTGS2 protein level, mean score (PTGS2 [2]; L-Carnosine 2.2%): 1.5091 | Effect on SSR-induced PTGS2 protein, in words (PTGS2 [2]; ex vivo human skin): efficiently reduce the SSR-induced induction of the PTGS2 gene and the PTGS2-protein
